Reference: patent US11541044B2, “K-Ras modulators” (The Regents of the University of California, priority 2015, dated 2023)
“Also recorded” adds a separate entry of the source.

Columns and labels:
[1] = biological target: T1, KRAS4b (1-188), unprocessed (Homo sapiens, UniProt P01116); test: MALDI-TOF analysis of modification of unprocessed KRAS4b; format: binding
T1 construct: G (one extra N-terminal glycine before Met1, remnant of the construct) (N); made in house; host or cells: E. coli
Protocol: FIG. 27. Comparing Gel Mobility and Antibody Reactivity of Different Purified K-Ras 4B Forms. E. Coli: unprocessed K-ras 4B purified from E. coli. Fme: processed K-ras 4B purified from SF9 cells. FB9: unprocessed K-ras 4B labeled with FB9 to about 70%.
Chemical modification of unprocessed KRAS-4b at His-95 (protein G-Hs.KRAS4b(1-188), mass (average) 21481.59 Da.
KRAS4b (FIG. 43) was modified by FB9 in vitro (using 8.8-fold molar excess of FB9 for 1 h at 37° C., followed by 16 h at room temperature, 22° C.). […] Molecular species with 1 and 2 and 3 modification groups were present (FIG. 44).
To identify the modified amino acid residues, the protein preparation was digested by protease Glu-C. […] Peptide with m/z 1735 corresponds to sequence GKKKKKKSKTKCVIM (SEQ ID NO: 3) (174-189) and m/z 2085 corresponds to the same peptide modified by FB9 at Cys-186 (confirmed by fragmentation).
To identify other potential residues modified by FB9, peptides obtained after digestion by Glu-C were further digested by trypsin (FIG. 46A).

K-Ras G12D = biological target: T2, K-Ras G12D (Homo sapiens, UniProt P01116, G12D); test: Covalent binding of electrophile compounds to K-Ras G12D (mass spectrometry)
T2 construct: Rec full length G12D became loaded with either GDP or GTPyS and Mg2+; His tag
Protocol: FIGS. 13A-13E. […] FIG. 13B and FIG. 13D were performed after 5 hours. FIG. 13C and FIG. 13E were performed at 23 hours.
FIGS. 15A-15D. Experiments with Stereoisomers of Difluorophenoxy-6B9; Kras G12D/GTPyS/Mg2+, DMSO control, 2 h incubation at RT; The binding of FB9 to Kras G12D was compared with the stereoisomers of Difluorophenoxy-6B9 (53, 54); FB9 bound 100% after 2 h incubation; Difluorophenoxy-6B9 (compound ‘53’) bound to about 62% compared to FB9 under the same condition; The stereoisomer (‘54’) of compound ‘53’ bound to roughly 35% compared to FB9 which is roughly 50% of compound ‘53’; Partial stereospecific interaction.

fmeKRAS4b = biological target: T3, fmeKRAS4b (Homo sapiens, UniProt P01116); test: MALDI-TOF analysis of modification of processed (farnesylated, carboxymethylated) KRAS4b; format: binding
T3 construct: GG (two N-terminal glycines in place of Met1, remnant of the construct) (N); made in house; host or cells: SF9 insect cells
Protocol: FIG. 36. Modification of fmeKRAS4b by FB9. Recombinant fmeKRAS4b was loaded with GDP or GppNHp (a nonhydrolyzable analogue of GTP), then reacted with FB9 at 37° C. for 100 min.
Modification of processed (farnesylated and carboxylmethylated KRAS4b). Protein prep GG-HsKRAS-4b, RP1151105092454 FmeKRAS4b (FIG. 47A) was modified by FB9 with 7.6-fold molar excess of FB9 for 1 h at 37° C., followed by 16 h at room temperature (22° C.). […] To identify the modified amino acid residues protein preparation was digested by trypsin.
During fragmentation, these modified peptides yielded intensive fragment corresponding to unmodified peptide and fragments of peptide (mostly without modification).
These peptides were modified on His residues. To identify which His was modified (i.e. 95 or 96 in the sequence of used recombinant KRAS) fragmentation spectra were analyzed in BioTools when FB9 modification (C17H20Cl1N2O4, 350/351) was set on one of these His residues in Sequence Editor.
In fragmentation spectrum of 1554 a fragment 825.409 was present but not in a spectrum of 1203. When FB9 modification was on His-7 this fragment was assigned by BioTools as modified y-3. Manual examination of the spectrum confirmed this conclusion.

[2] = Reactivity of FB9 with BME; format: physicochemical; details: 1 mM FB9, 5 mM BME, 37° C., 55 minutes
Protocol: FIGS. 20A-20C. Reactivity of Tetrafluorophenoxy-6B9 (FB9) with BME; experiment was done with 1 mM FB9 and minus or plus 5 mM BME at 37° C.

[3] = system: Ras-less cells exogenously expressing K-Ras G12D; test: EGF stimulation plus FB9 in G12D expressing RAS-less MEFS; format: cell-based; details: EGF for 30 and 60 minutes, FB9 at various concentrations
Protocol: FIG. 22. Cell Based Assays with G12D expressing RAS-less MEFS; Ras-less cells exogenously expressing K-Ras G12D were stimulated with EGF for 30 and 60 minutes. Concomitantly FB9 was added at various concentrations. Similar experiments were done with pancreatic cell lines expressing various oncogenic mutations. […] Growth curves were also performed.

Kras = test: Interaction of FB9 with Kras in the absence or presence of BME; format: binding, human; details: RT

extent of chemical modification of unprocessed KRAS4b ([1]; 8.8-fold molar excess of FB9, 1 h at 37° C., then 16 h at 22° C.): close to complete
unprocessed K-ras 4B labeled with FB9 ([1]; protein preparation used for gel mobility comparison): about 70%
bound better than enantiomer FB9D (K-Ras G12D; K-Ras (G12D), GTPyS/Mg, 50 μM for 2.5 h at RT): 25-30%
bound to Kras G12D (K-Ras G12D; Kras G12D/GTPyS/Mg2+, 2 h incubation at RT): 100%
product formed with BME (reduction of the free compound peak) [2]: about 25%
SMILES: COc1ccc(Cl)cc1C(=O)N1CCC[C@H](C(=O)NCC(=O)COc2c(F)c(F)cc(F)c2F)C1 [FB9, (3S)-1-[(5-Chloro-2-methoxyphenyl)carbonyl]-N-[2-oxo-3-(2,3,5,6-tetrafluorophenoxy)propyl]piperidine-3-carboxamide]
labelling at a second site (K-Ras G12D; K-Ras/GDP/Mg2+, 5 h): significantly labelled at a second site after 5 h
binding to GTPyS versus GDP bound K-Ras G12D (K-Ras G12D; ~10 μM protein, 100 μM compound, RT, 5 and 23 hours): bound better when K-Ras was in complex with GTPyS/Mg2+
extent of chemical modification of FmeKRAS4b (fmeKRAS4b; 7.6-fold molar excess of FB9, 1 h at 37° C., then 16 h at 22° C.): major form represented species with 1 added modification group
covalent modification, GDP versus GppNHp loaded protein (fmeKRAS4b; 37° C. for 100 min, 350 Da mass addition): more pronounced when GTP analogue was present
residue modified in FME-Kras4B (fmeKRAS4b; recombinant farnesylated-carboxymethylated protein): covalently modifies histidine 95 residue (H95); also recorded: His7 (i.e. H95 in the native protein) is modified
K-Ras protein levels [3]: Changes at K-Ras protein levels are visible
reactivity with Kras when BME is titrated in (Kras): reactivity of the compound being reduced
